Data published in publication PMC7281206, “Cysteine Cathepsins Inhibition Affects Their Expression and Human Renal Cancer Cell Phenotype” (Cancers, 2020).
Entries after “also recorded” stand apart in the source; their conditions may differ. *: point of attachment. CH2F = FC*

Key:
Format in all cases: cell-based, human
[1] = system: E-cadherin in 769-P cells; test: E-cadherin protein expression (western blot), 769-P
Protocol: These properties could be the result of the modulation of the effectors controlling EMT, as previously shown in other tumor models. To test this hypothesis, the cells were treated with the inhibitors for 24, 48, and 72 h by changing the media every day, and they were tested for E-cadherin and SNAIL1 expression (Figure 6; detail information of western blots can be seen in Supplementary Figure S7).  Figure 6 Effects of the peptides on E-cadherin and SNAIL1 protein expression: (a,b) protein expression of E-cadherin and SNAIL1 in 769-P and (c,d) A498 cells after 24, 48, and 72 h of treatment with the peptides. Data are represented as mean ± SD of at least three replicates. Significance was calculated through one-way ANOVA, followed by Dunnet’s test. Cells were seeded in RPMI containing 10% FBS and cultured for 24 h. Next, 30 µM of inhibitors were added to the culture medium and incubated for 24, 48, and 72 h. Control cells were treated with 0.01% DMSO. At all time points the samples were lysed in 50 mM Tri-HCl (pH 8.0), 100 mM NaCl, 0.5% NP-40, 1% Triton X-100, 1× protease inhibitor cocktail (ThermoFisher, Waltham, MA, USA). The 50 µg of protein lysates were separated by electrophoresis on a 12% SDS-PAGE gel and transferred to the PFDF membranes. The expression of cysteine Cts, LAMP-1, E-cadherin, and SNAIL1 were identified by a reaction with specific primary antibodies (CtsB-Ab190077, Abcam, UK; CtsL-Ab95154, Abcam, UK; CtsW Ab191083; LAMP-1- Ab24170, Abcam, UK; SNAIL1 Ab216347, Abcam, UK and e-cadherin-612131, BD Sciences Franklin Lakes, NJ, USA) which were resuspended in 5% non-fat milk in PBST (all Cts 1:3000, LAMP-1, SNAIL1 and E-cadherin 1:1000) and incubated O/N. The next day, the membranes were washed three times with PBST and incubated for 1 h with secondary antibodies (P-GAR Iss (Goat pAb to rabbit IgG (HRP), Abcam, UK or Rabbit Ab to mouse, Abcam, UK; both 1:5000) in 5% non-fat milk in PBST. After an additional wash (three times with PBS), reactive bands were detected by chemiluminescence (Bio-Rad, Irvine, CA, USA). As a loading control, the membranes were incubated with a polyclonal anti-tubulin antibody (1:5000; Ab52866, Abcam, UK) identically.

E-cadherin in A498 cells = test: E-cadherin protein expression (western blot), A498; conditions: first 48 h
Protocol: These properties could be the result of the modulation of the effectors controlling EMT, as previously shown in other tumor models. To test this hypothesis, the cells were treated with the inhibitors for 24, 48, and 72 h by changing the media every day, and they were tested for E-cadherin and SNAIL1 expression (Figure 6; detail information of western blots can be seen in Supplementary Figure S7). Figure 6 Effects of the peptides on E-cadherin and SNAIL1 protein expression: (a,b) protein expression of E-cadherin and SNAIL1 in 769-P and (c,d) A498 cells after 24, 48, and 72 h of treatment with the peptides. Data are represented as mean ± SD of at least three replicates. Significance was calculated through one-way ANOVA, followed by Dunnet’s test. Cells were seeded in RPMI containing 10% FBS and cultured for 24 h. Next, 30 µM of inhibitors were added to the culture medium and incubated for 24, 48, and 72 h. Control cells were treated with 0.01% DMSO. At all time points the samples were lysed in 50 mM Tri-HCl (pH 8.0), 100 mM NaCl, 0.5% NP-40, 1% Triton X-100, 1× protease inhibitor cocktail (ThermoFisher, Waltham, MA, USA). The 50 µg of protein lysates were separated by electrophoresis on a 12% SDS-PAGE gel and transferred to the PFDF membranes. […] After an additional wash (three times with PBS), reactive bands were detected by chemiluminescence (Bio-Rad, Irvine, CA, USA). […]

LAMP-1 in 769-P cells = test: LAMP-1 protein expression (western blot), 769-P; conditions: 20 μM, 24, 48, 72 h
Protocol: Figure 7 Effect of the peptides on LAMP-1 protein expression: (a) Western blotting analysis of LAMP-1 after treatment with PLVE and VLPE (20 μM) for 24, 48, and 72 h in 769-P cells. (b) Confocal microscopy evaluation of LAMP-1 expression after 48 and 72 h of treatment with PLVE and VLPE (20 μM) in 769-P cells. (c) Western blotting analysis of LAMP-1 after treatment with PLVE and VLPE (20 μM) for 24, 48, and 72 h in A498 cells. (d) Confocal microscopy evaluation of LAMP-1 expression after 48 and 72 h of treatment with PLVE and VLPE (20 μM) in A498 cells. Data are represented as mean ± SD of at least three replicates. Significance was calculated through one-way ANOVA followed by Dunnet’s test. * = p < 0.05, ** = p < 0.01, *** = p < 0.001. Cells were seeded in RPMI containing 10% FBS and cultured for 24 h. Next, 30 µM of inhibitors were added to the culture medium and incubated for 24, 48, and 72 h. Control cells were treated with 0.01% DMSO. At all time points the samples were lysed in 50 mM Tri-HCl (pH 8.0), 100 mM NaCl, 0.5% NP-40, 1% Triton X-100, 1× protease inhibitor cocktail (ThermoFisher, Waltham, MA, USA). The 50 µg of protein lysates were separated by electrophoresis on a 12% SDS-PAGE gel and transferred to the PFDF membranes. […] After an additional wash (three times with PBS), reactive bands were detected by chemiluminescence (Bio-Rad, Irvine, CA, USA). […]

Substance | E-cadherin protein expression ([1]; 72 h) | E-cadherin protein expression ([1]; first 48 h) | E-cadherin protein expression (E-cadherin in A498 cells) | LAMP-1 protein expression (LAMP-1 in 769-P cells)
Ac-PLVE-CH2F [Ac-PLVE-FMK] | further increased in 769P cells | increased the protein expression of E-cadherin in the first 48 h in both the cell lines | increased the protein expression of E-cadherin in the first 48 h in both the cell lines | significantly increased the expression of this lysosomal biomarker at all the considered time points, reaching significant peaks at 48 h of treatment
Ac-VLPE-CH2F [Ac-VLPE-FMK] | further increased in 769P cells | increased the protein expression of E-cadherin in the first 48 h in both the cell lines | increased the protein expression of E-cadherin in the first 48 h in both the cell lines | significantly increased the expression of this lysosomal biomarker at all the considered time points, reaching significant peaks at 48 h of treatment; also recorded: more efficient than Ac-PLVE-FMK in increasing the expression of LAMP-1
